Experiments:
FGFR2 = FGFR2 (Homo sapiens (Human), UniProt P21802); test: FGFR2 Biochemical Caliper Assay
Description: Compounds of the present invention were also tested in a FGFR2 Biochemical Caliper Assay. Compounds were prepared in 10 mM DMSO solution and serially diluted into 11 concentrations by 3-fold dilution. […] 5 uL of ATP solution (100 uM) was added to start the reaction and the plate was incubated for 90 minutes, then 70 uL of stopping buffer (0.5M EDTA) was added to terminate the reaction. Each well was analyzed using EZ reader.

SNU16 cells = test: SNU16 Cancer Cell Line Proliferation Assay; type: cell-based; details: SNU-16 cells
Outline: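 Proliferation read-out: CellTiter Glo chemiluminescence after 96 h compound exposure. Test compounds, serially diluted 3-fold over 11 points from a 10 mM DMSO stock, were added to SNU16 cells plated 24 h earlier at 37 degrees.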

Chain of FGFR2 (P21802 22-821): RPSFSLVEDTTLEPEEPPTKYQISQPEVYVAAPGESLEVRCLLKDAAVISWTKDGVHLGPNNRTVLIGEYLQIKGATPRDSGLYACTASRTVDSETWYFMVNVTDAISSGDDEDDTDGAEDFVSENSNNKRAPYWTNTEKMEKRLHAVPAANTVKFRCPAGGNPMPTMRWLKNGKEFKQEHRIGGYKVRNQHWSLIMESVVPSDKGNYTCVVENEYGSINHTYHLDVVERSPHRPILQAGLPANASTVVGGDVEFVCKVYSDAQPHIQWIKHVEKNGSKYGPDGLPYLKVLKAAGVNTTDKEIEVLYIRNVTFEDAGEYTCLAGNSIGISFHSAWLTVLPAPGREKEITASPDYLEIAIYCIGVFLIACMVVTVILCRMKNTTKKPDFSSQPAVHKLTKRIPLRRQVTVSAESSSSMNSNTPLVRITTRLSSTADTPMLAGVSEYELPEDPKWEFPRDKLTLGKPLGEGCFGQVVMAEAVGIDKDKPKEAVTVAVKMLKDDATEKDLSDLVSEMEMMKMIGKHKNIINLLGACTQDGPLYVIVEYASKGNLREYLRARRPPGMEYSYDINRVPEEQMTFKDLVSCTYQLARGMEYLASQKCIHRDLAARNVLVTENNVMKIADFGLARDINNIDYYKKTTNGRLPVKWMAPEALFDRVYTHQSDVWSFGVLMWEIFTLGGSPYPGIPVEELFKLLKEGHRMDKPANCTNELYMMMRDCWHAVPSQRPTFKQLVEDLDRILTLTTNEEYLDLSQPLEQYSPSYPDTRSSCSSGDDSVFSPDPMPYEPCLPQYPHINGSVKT

Structure (SMILES): C=C(C)C(=O)Nc1ccc(-c2c(-c3ccc(Oc4nccc(C)n4)c(Cl)c3)c3c(N)ncnc3n2C)cc1 [Example 505]
- IC50 (FGFR2): < 100 nM
- IC50 (SNU16 cells; Homo sapiens): ≤ 100 nM

Structure (SMILES): C=C(C)C(=O)Nc1ccc(-c2c(-c3ccc(Oc4ccnc(C)n4)c(Cl)c3)c3c(N)ncnc3n2C)cc1 [Example 506]
- IC50 (FGFR2): 250 to 1000 nM
- IC50 (SNU16 cells; Homo sapiens): 250 to 1000 nM

Structure (SMILES): C=C(C)C(=O)Nc1ccc(-c2c(-c3ccc(Oc4nccc(OC)n4)c(F)c3)c3c(N)ncnc3n2C)cc1 [Example 507]
- IC50 (FGFR2): < 100 nM
- IC50 (SNU16 cells; Homo sapiens): ≤ 100 nM

Structure (SMILES): C=C(C)C(=O)Nc1ccc(-c2c(-c3ccc(Oc4nccc(C)n4)c(C#N)c3)c3c(N)ncnc3n2C)cc1 [Example 508]
- IC50 (FGFR2): < 100 nM
- IC50 (SNU16 cells; Homo sapiens): ≤ 100 nM

Structure (SMILES): C=C(C)C(=O)Nc1ccc(-c2c(-c3ccc(Oc4nccc(COC)n4)c(F)c3)c3c(N)ncnc3n2C)cc1 [Example 511]
- IC50 (FGFR2): < 100 nM
- IC50 (SNU16 cells; Homo sapiens): ≤ 100 nM

Structure (SMILES): Cn1c(-c2ccc(NC(=O)C3=CCC3)cc2)c(-c2ccc(C(=O)N3CCCC3)cc2)c2c(N)ncnc21 [Example 512]
- IC50 (FGFR2): < 100 nM
- IC50 (SNU16 cells; Homo sapiens): ≤ 100 nM

Structure (SMILES): C=C(C)C(=O)Nc1ccc(-c2c(-c3ccc(Oc4nccc(C)n4)c(F)c3)c3c(N)ncnc3n2C)c(CO)c1 [Example 513]
- IC50 (FGFR2): < 100 nM
- IC50 (SNU16 cells; Homo sapiens): ≤ 100 nM

Structure (SMILES): C=C(C)C(=O)Nc1ccc(-c2c(-c3ccc(Oc4nccc(C(F)F)n4)c(F)c3)c3c(N)ncnc3n2C)cc1 [Example 514]
- IC50 (FGFR2): < 100 nM
- IC50 (SNU16 cells; Homo sapiens): ≤ 100 nM

Structure (SMILES): C=C(C)C(=O)Nc1ccc(-c2c(-c3ccc(Oc4ncc(F)c(C)n4)c(F)c3)c3c(N)ncnc3n2C)cc1 [Example 515]
- IC50 (FGFR2): < 100 nM
- IC50 (SNU16 cells; Homo sapiens): ≤ 100 nM

Structure (SMILES): C=C(C)C(=O)Nc1ccc(-c2c(-c3ccc(C(=O)N4CCCC4)cc3)c3c(N)ncnc3n2C)c(C2CC2)c1 [Example 520]
- IC50 (FGFR2): 100 to 250 nM
- IC50 (SNU16 cells; Homo sapiens): 100 to 250 nM

Structure (SMILES): C=C(C)C(=O)Nc1ccc(-c2c(-c3ccc(Oc4nccc(C)n4)cc3)c3c(N)ncnc3n2C)c(CC)c1 [Example 521]
- IC50 (FGFR2): < 100 nM
- IC50 (SNU16 cells): ≤ 100 nM

Structure (SMILES): C=C(CN(C)C)C(=O)Nc1ccc(-c2c(-c3ccc(C(=O)N4CCCC4)cc3)c3c(N)ncnc3n2C)cc1 [Example 522]
- IC50 (FGFR2): < 100 nM
- IC50 (SNU16 cells; Homo sapiens): ≤ 100 nM

Structure (SMILES): C=C(C)C(=O)Nc1ccc(-c2c(-c3ccc(Oc4nccc(C)n4)c(F)c3)c3c(N)ncnc3n2C2CCCO2)cc1 (centres unmarked) [Example 524]
- IC50 (FGFR2): < 100 nM
- IC50 (SNU16 cells; Homo sapiens): ≤ 100 nM

Structure (SMILES): C=C(C)C(=O)Nc1ccc(-c2c(-c3ccc(Oc4nccc(C)n4)c(F)c3)c3c(N)ncnc3n2C)c(C(F)F)c1 [Example 526]
- IC50 (FGFR2): < 100 nM
- IC50 (SNU16 cells; Homo sapiens): ≤ 100 nM

Structure (SMILES): C=C(C)C(=O)Nc1ccc(-c2c(-c3ccc(Oc4nccc(C)n4)c(F)c3)c3c(N)ncnc3n2C)c(C)c1 [Example 529]
- IC50 (FGFR2): < 100 nM
- IC50 (SNU16 cells; Homo sapiens): ≤ 100 nM

Structure (SMILES): C=C(C)C(=O)Nc1ccc(-c2c(-c3ccc(Oc4nccc(Cl)n4)c(F)c3)c3c(N)ncnc3n2C)cc1 [Example 530]
- IC50 (FGFR2): < 100 nM
- IC50 (SNU16 cells; Homo sapiens): ≤ 100 nM

Structure (SMILES): C=C(C)C(=O)Nc1ccc(-c2c(-c3ccc(Oc4cccc(C)n4)cc3)c3c(N)ncnc3n2C)nc1 [Example 533]
- IC50 (FGFR2): < 100 nM
- IC50 (SNU16 cells; Homo sapiens): ≤ 100 nM

Structure (SMILES): C=C(C)C(=O)Nc1ccc(-c2c(-c3ccc(C(=O)N4CCCC4)cc3F)c3c(N)ncnc3n2C)cc1 [Example 537]
- IC50 (FGFR2): 100 to 250 nM
- IC50 (SNU16 cells; Homo sapiens): ≤ 100 nM

Structure (SMILES): C=C(C)C(=O)Nc1ccc(-c2c(-c3ccc(Oc4cnn(C)c4)cc3)c3c(N)ncnc3n2C)cc1 [Example 541]
- IC50 (FGFR2): 1000 to 100000 nM
- IC50 (SNU16 cells; Homo sapiens): 250 to 1000 nM

Structure (SMILES): C=C(C)C(=O)Nc1ccc(-c2c(-c3ccc(Oc4nccc(C)n4)cc3F)c3c(N)ncnc3n2C)c(F)c1 [Example 543]
- IC50 (FGFR2): < 100 nM
- IC50 (SNU16 cells; Homo sapiens): ≤ 100 nM

Structure (SMILES): C=C(C)C(=O)Nc1ccc(-c2c(-c3cc(F)c(Oc4nccc(C)n4)cc3F)c3c(N)ncnc3n2C)cc1 [Example 546]
- IC50 (FGFR2): < 100 nM
- IC50 (SNU16 cells; Homo sapiens): ≤ 100 nM

Structure (SMILES): C=C(C)C(=O)Nc1ccc(-c2c(-c3ccc(Oc4nccc(C)n4)c(F)c3F)c3c(N)ncnc3n2C)cc1 [Example 552]
- IC50 (FGFR2): < 100 nM
- IC50 (SNU16 cells; Homo sapiens): ≤ 100 nM

Structure (SMILES): C=Cc1ncc(-c2c(-c3ccc(C(=O)N4CCCC4)cc3)c3c(N)ncnc3n2C)cn1 [Example 554]
- IC50 (FGFR2): 250 to 1000 nM
- IC50 (SNU16 cells; Homo sapiens): 250 to 1000 nM

Structure (SMILES): Cn1c(-c2ccc(NC(=O)CCl)cc2)c(-c2ccc(C(=O)N3CCCC3)cc2)c2c(N)ncnc21 [Example 558]
- IC50 (FGFR2): < 100 nM
- IC50 (SNU16 cells; Homo sapiens): ≤ 100 nM

Structure (SMILES): C=C(C)C(=O)Nc1ccc(-c2c(-c3ccc(C(=O)N4CC5CC4C5)cc3F)c3c(N)ncnc3n2C)cc1 [Example 562]
- IC50 (FGFR2): 100 to 250 nM
- IC50 (SNU16 cells; Homo sapiens): ≤ 100 nM

Structure (SMILES): C=C(C)C(=O)Nc1ccc(-c2c(-c3ccc(C(=O)N4CCCC4)cc3C#N)c3c(N)ncnc3n2C)cc1 [Example 563]
- IC50 (FGFR2): 1000 to 100000 nM
- IC50 (SNU16 cells; Homo sapiens): 250 to 1000 nM

Structure (SMILES): C=C(C)C(=O)Nc1ccc(-c2c(-c3ccc(Oc4nccc(C)n4)cc3C#N)c3c(N)ncnc3n2C)cc1 [Example 564]
- IC50 (FGFR2): 1000 to 100000 nM
- IC50 (SNU16 cells; Homo sapiens): 250 to 1000 nM

Structure (SMILES): C=C(C)C(=O)Nc1ccc(-c2c(-c3ccc(C(=O)NC4CC(F)C4)c(OC)c3)c3c(N)ncnc3n2C)cc1 (centres unmarked) [Example 566]
- IC50 (FGFR2): < 100 nM
- IC50 (SNU16 cells; Homo sapiens): ≤ 100 nM

Source: US11780845B2 (Relay Therapeutics, Inc., priority 2019, dated 2023)
